Results from patent publication US7671039B2 (Glucan Corporation, priority 2004, dated 2010).
Marks after values point to notes of the source that are not given here.

Experiments:
[1] = test system: ddY female mice with ovary extraction; assay: Weight of bone of both thighs in ovary-extracted mice; type: in vivo; details: wet weight, FOSA group: Fosamax 10 mg/kg oral, 4 weeks
Protocol: After sacrifice, a weight of bone of both thighs is calculated with g unit. To reduce an error arising from a difference of individual body weight, a weight of bone is calculated with relative weight as following equation. Weight of bone=[(absolute weight of bone/body weight at sacrifice)×100]

[2] = FOSA group: Fosamax 10 mg/kg oral; I: body weight after sacrifice − after administration
Protocol: 25 ddY female mice (age of 6 weeks, SLC, Japan) are used after adaptation during 7 days. The above animals are grouped each 5 and bred in a cage made of polycarbonate under the condition of temperature of 20˜25° C. and humidity of 30˜35%. A cycle of light and darkness is controlled to 12 hours: 12 hours. Feed stuff (Samyang Co., Korea) and water is fed freely. For 20 mice, the both ovary is taken out (ovary extraction : disclosing the both ovary, and then removing all of the both ovary, and then suturing with the same method), and for 5 mice, only sham surgical operation is carried out (sham surgical operation disclosing the both ovary by cutting (3 cm) a skin and an abdominal muscle, and then closing using a skin suturing technique). For the purpose of therapeutic research, a treatment is started after 4 weeks of the ovary extraction, each sample is administrated during 4 weeks.
All sample is stored at a refrigerate (−10° C.) to prevent from a moisture and light. […]
Change of body weight and increasing part is calculated after immediately surgical operation, after 4 weeks of surgical operation, after administration, and each week one times during experiment period. […] Also, an increasing part of body weight during adapting period (Increasing part I) and administrating period (Increasing part II) is calculated as followings. […]

[3] = test system: ddY female mice with ovary extraction; assay: Histomorphometric changes of left thigh, Hematoxylin-Eosin dyeing; type: in vivo
Protocol: (§1) For histological analysis of experimental animals, the left thigh of each mouse is separated to fix in 10% neutral buffer formalin (NBF) solution, and then delimed during 5 days at delime solution [24.4% formic acid, […]] (the mixed delime solution is exchanged each day one times during 3 days). And then it is fixed to paraffin and then made fraction ([…]) and dyed with hematoxylineosin.
A histomorphometric change of left thigh is analyzed by dyeing with Hematoxylin-Eosin.

[4] = test system: ddY female mice with ovary extraction; assay: Histological indices of trabecular and cortical bone of thigh in ovary-extracted mice; type: in vivo; details: FOSA group: Fosamax 10 mg/kg oral, 4 weeks
Description: as §1
Body weight, weight of both thigh, histological change including trabecular bone volume (TBV) % and Cortical bone thickness (Cbt) is analyzed. Also, histomorphometric changes of the trochoid bone of left thigh are observed. All experimental result of followings are shown with means±standard deviation. A statistical analysis is carried out by using SPSS For Windows (Release 6.1.3., SPSS Inc, USA) and Mann-Whitney U-Wilcoxon Rank Sum W test(M-W test).
TBV is calculated by using a Auto Image analysis (analySIS Image Processing; SIS, Germany) under 100 magnifications on a microscope (Zeiss, Germany) for regular size of trabecular bone at the trochoid bone of […] (excluding a growth plate). TBV is calculated with (%) unit.
A trabecular bone thickness (Tbt), a number of trabecular bone (Tbn), and a trabecular bone length (Tbl) are calculated by using a Auto Image analysis (analySIS Image Processing; SIS, Germany) under 100 magnifications on a microscope (Zeiss, Germany) for regular size at the trochoid bone of left thigh (excluding a growth plate). Tbt and Tbl are calculated with μm unit, and Tbn is calculated with a number of trabecular bone/all section of the trochoid bone section. Tbt and Tbl is calculated at trabecular bone that is most developed in a regular size of the trochoid bone section.
Cbt is measured at the trochlea neck of thigh and calculated by using a Auto Image analysis (analySIS Image Processing; SIS, Genmany) under 200 magnifications on a microscope (Zeiss, Germany) at prepared histological sample.

NCCCC(O)(P(=O)(O)O)P(=O)(O)O [FOSA, sodium alendronate]
Absolute weight of bone [1]: 0.075 ± 0.006 g | Increasing part II of body weight [2]: 3.26 ± 2.73 | histomorphometric changes of trabecular bone of left thigh (FIG. 3) ([3]; Fosamax and beta-glucan groups compared with control group, width or number lower than sham group): many an extended trabecular bone | histomorphometric changes of cortical bone of left thigh (FIG. 4) ([3]; Fosamax group, 10 mg/kg oral, 4 weeks): Some increased or similar width and histomorphometric property comparing with control group | Tbn number of trabecular bone ([4]; control 3.40 ± 1.14): 15.20 ± 2.77 | Tbt(μm) trabecular bone thickness ([4]; control 66.40 ± 11.70): 93.60 ± 9.56 μm | Cbt(μm) Cortical bone thickness ([4]; control 99.20 ± 20.46): 102.50 ± 22.29 μm | Tbl(μm) trabecular bone length ([4]; control 524.40 ± 176.78): 759.40 ± 89.17*^,## μm | TBV (%) trabecular bone volume ([4]; n = 5, control 20.23 ± 1.72, sham 47.31 ± 5.95): 35.13 ± 4.28%
